Calls of active or inactive are those of the source. No rule for the calls is given here.
Each compound was assayed against RanGTP-importin-beta complex (human Ran / KPNB1) (assay: Ran–importin-beta interaction inhibitors, confirmation, biochemical, FRET, CFP/YFP, cell-free homogeneous (AID 2823)). Conditions: CFP-Ran/YFP-importin-beta FRET ratio.

| SMILES | IC50 |
| --- | --- |
| C[C@H](O)c1[nH]c2cc(F)ccc2c1[C@H](C)O | > 50 µM (inactive) |
| CCC(=O)N(CC(=O)Nc1sc(C)c(C)c1C(N)=O)C1CCCC1 | > 50 µM (inactive) |
| Oc1cccc(/C=N/Nc2cc(N3CCCC3)nc(N3CCCC3)n2)c1 | > 50 µM (inactive) |
| Nc1nc(N2CCOCC2)nc(N(c2ccccc2)c2ccccc2)n1 | > 50 µM (inactive) |
| CCOC(=O)c1c(C)oc2cc(Br)c(OCC(N)=O)cc12 | > 50 µM (inactive) |
| C/C(=N\NC(=O)c1c(C)nc2ccccn12)c1ccc(O)cc1O | > 50 µM (inactive) |
| NC(=O)CN(Cc1ccccc1)S(=O)(=O)c1ccc2c(c1)OCCO2 | > 50 µM (inactive) |
| CCCC1C(C#N)=C(N)Oc2cc(C)n(C)c(=O)c21 (stereo unspecified) | > 50 µM (inactive) |
| Cc1cnc(=O)[nH]c1SCC(=O)c1ccc(F)cc1 | > 50 µM (inactive) |
| CC1CCCCN1Cc1c(O)ccc2c(=O)c(-c3nc4ccccc4s3)coc12 (stereo unspecified) | < 0.38 µM |
| CC(=O)Oc1cc2oc(=O)cc(C)c2cc1OC(C)=O | 24.7 µM |
| Cc1ccc(S(=O)(=O)Nc2nc3ccccc3nc2NCc2ccco2)cc1 | 18.2 µM |
| O=c1c2cc(NC(=S)N3CCC(N4CCCCC4)CC3)ccc2nc2n1CCCCC2 | > 50 µM (inactive) |
| C/C(=N\OCC(=O)OCC(=O)NC(=O)c1ccccc1)c1ccc2c(c1)OCO2 | > 50 µM (inactive) |
| CCc1ccc(C2C3=C(CC(C)(C)CC3=O)Nc3c2c(=O)[nH]c2nc(C)nn32)cc1 (stereo unspecified) | 7.01 µM |
| CCc1cc2c(COC(=O)c3c(C)noc3C)cc(=O)oc2cc1O | > 50 µM (inactive) |
| COc1ccc(NC(=O)CN2C(=O)CC(C)S(=O)(=O)c3ccccc32)cc1 (stereo unspecified) | > 50 µM (inactive) |
| N#Cc1c(N)n(CCOC(=O)c2ccc(Cl)cc2)c2nc3ccccc3nc12 | 3.68 µM |
| COc1ccc(CCNC(=O)c2cc3c(=O)n4cccc(C)c4nc3n(CCCN3CCOCC3)c2=N)cc1 | 4.87 µM |
| Cc1sc2nc(COC(=O)Cc3ccccc3)[nH]c(=O)c2c1C | > 50 µM (inactive) |
| Cc1ccc(NC(=O)COC(=O)Cc2ccsc2)c(C)c1 | > 50 µM (inactive) |
| Cc1cccc(N2C(=O)/C(=C/c3cccnc3)SC2=S)c1 | > 50 µM (inactive) |
| COc1ccc(OC)c(S(=O)(=O)n2ccnc2C)c1 | > 50 µM (inactive) |
| O=C(CN1CCOCC1)NNc1c2ccccc2nc2ccccc12 | > 50 µM (inactive) |
| C=CCn1c(O)c(N=NC(=S)Nc2ccccc2F)c2cc(S(=O)(=O)N3CCOCC3)ccc21 | > 50 µM (inactive) |
| CCOCCCNC(=S)NCCCNc1nc2cc3c(cc2cc1C#N)OCO3 | 9.41 µM |

— PubChem BioAssay AID2823 (Broad Institute, 2010)
